# From patent US20060063944A1, “Estrone derivatives and process for producing same” (CHUGAI SEIYAKU KABUSHIKI KAISHA, priority 2002, published 2006)
# Legend:
# [1] = tested on: increase in the weight of the uterus induced by 17β-estradiol benzoate; assay: Anti-estrogen activity in oral administration (suppression of estradiol-induced increase in uterus weight in ovariectomized mice); format: in vivo; settings: ovariectomized ICR mice, oral 10 mg/kg once a day for 3 days, 17β-estradiol benzoate 0.1 μg s.c.
# Description: In the test, each of the test compounds and a control compound were suspended in a 5% gum arabic solution and administered to the mice orally in doses of 10 mg/kg on a once-a-day basis for 3 days. Twenty-four hours after the administration of the final dose, the test animals were slaughtered and the uterus was extracted and its weight was measured.
# [2] = AUC measurement in oral administration, test with mice; format: in vivo; settings: plasma, 30 mg/kg, 5% gum arabic suspension; for AUC(0-inf): female, ICR, mouse, po; for AUC∞: ICR mice
# Description: (§1) The AUC of specified compounds in oral administration was measured by the following tests.
# A 5% gum arabic suspension (10 ml/kg) of a test substance (30 mg/kg) was forcibly administered orally into ICR mice (female, 8-10 week old) by means of a mouse stomach probe and after the lapse of specified periods of time (15 minutes, 30 minutes, and 1, 2, 4, 6, 8, 24 and 48 hours), whole blood was taken from the abdominal large vein (n=3 for each time period). The concentration of the test substance in the sampled plasma was measured by HPLC (eluant: acetonitrile/water) and AUC was determined by moment analysis from the average plasma concentration for each time period. The test substances were compound 1, compound 2, compound 4 and compound 5. Two control compounds were used, one being the first component prepared in step 1 of Example 1 (control compound 2) and the other being the second component (control compound 1).
# [3] = AUC measurement in oral administration, test with monkeys; format: in vivo; settings: female, cynomolgus monkey, 3 mg/kg, PEG/water/ethanol solution, plasma
# Description: as §1
# A PEG/water/ethanol [8/4/3 (v/v)] solution (3 ml/kg) of a test substance (3 mg/kg) was administered orally into cynomolgus monkeys (female, 3-5 years old, 2.5-4 kg) through a catheter inserted from the nostrils into the stomach and about 1 ml of blood was taken over a period of 48 hours at specified time intervals (15 minutes, 30 minutes, and 1, 2, 4, 6, 8, 10, 24 and 48 hours). The concentration of the test substance in the sampled plasma was measured by use of LC/MS/MS (ESI, eluant: acetonitrile/water) and AUC was determined by moment analysis. The test substances were compound 1 and compound 4. The second component prepared in step 1 of Example 1 was used as control compound 1.
# [4] = target: T1, intranuclear estrogen receptor (EgR) (Homo sapiens, UniProt P03372); assay: Estrogen receptor downregulating activity (intranuclear EgR content in MCF-7); format: cell-based; settings: MCF-7 cells; for DC50: 2 days with compound, ER-EIA, read-out: IC50 (intranuclear EgR content)
# T1 construct: endogenous in cells; host or cells: MCF-7 (ATCC)
# T1 sequence (P03372 whole entry): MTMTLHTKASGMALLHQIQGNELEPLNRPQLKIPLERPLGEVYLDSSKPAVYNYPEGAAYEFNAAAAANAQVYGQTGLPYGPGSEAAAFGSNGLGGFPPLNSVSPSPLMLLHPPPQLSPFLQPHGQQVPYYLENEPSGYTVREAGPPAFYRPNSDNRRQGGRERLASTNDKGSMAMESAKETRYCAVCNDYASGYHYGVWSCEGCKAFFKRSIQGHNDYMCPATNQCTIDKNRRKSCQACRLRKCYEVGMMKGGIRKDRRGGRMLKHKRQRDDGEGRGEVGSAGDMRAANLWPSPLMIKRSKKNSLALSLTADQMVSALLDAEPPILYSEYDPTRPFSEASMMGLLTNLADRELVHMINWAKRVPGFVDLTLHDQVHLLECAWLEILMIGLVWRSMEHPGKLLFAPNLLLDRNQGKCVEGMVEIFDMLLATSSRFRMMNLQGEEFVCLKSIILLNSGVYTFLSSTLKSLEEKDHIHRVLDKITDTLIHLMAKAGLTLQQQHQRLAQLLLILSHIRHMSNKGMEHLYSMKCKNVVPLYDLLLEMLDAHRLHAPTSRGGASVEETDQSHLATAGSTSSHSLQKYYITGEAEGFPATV
# Description: Tris(hydroxymethyl)aminomethane, dithiothreitol and glycerol were obtained from Nacalai Tesque. Protease inhibitor tablets were obtained from Boehringer Mannheim. Human breast cancer cell line MCF-7 was obtained from ATCC, fetal calf serum (FCS) from Hyclone, DMEM from Invitrogen, and PBS(−) from Nissui.
# Tris-HCl buffer (1 mol/L, pH=7.4) was diluted 50-fold with distilled water to a concentration of 20 mmol/L (pH=7.4). To the diluted buffer, dithiothreitol and glycerol were added to give respective final concentrations of 1 mmol/L and 10%. Further, protease inhibitor tablets were added, with one tablet per 50 mL of buffer. The thus conditioned solution was used as a solubilizing buffer.
# Samples for quantitating the intranuclear estrogen receptor (EgR) were prepared by the following procedure. MCF-7 cultivated in 5% FCS/DMEM was sown on 6-cm dishes at a concentration of 4×10^5 cells/dish and cultivated for 3 days; cultivation was continued for an additional 2 days in the presence of compound 1 or compound 2 at final concentrations of 1-100 nmol/L or in the presence of compound 4 at final concentrations of 1-1,000 nmol/L or compound 5 at final concentrations of 1-10,000 nmol/L. Thereafter, the cells were washed with PBS(−), mixed with the solubilizing buffer, subjected to two cycles of freezing at −80° C. and thawing at room temperature, and centrifuged at 4° C. for 10 minutes at 4000 rpm (centrifuge: TOMY, Model MX-150). To the precipitation, the solubilizing buffer containing 500 mmol/L of NaCl was added and the mixture was treated with a micro-tube mixer (TOMY, Model MT-360) at 4° C. for about 30 minutes. Following centrifugation at 4° C. for 30 minutes at 15,000 rpm (centrifuge: TOMY, Model MX-150), the supernatant was collected and stored at −80° C. as an extracted nuclear sample. The EgR content in the extracted nuclear sample was measured with an EgR assay kit (ER-EIA “ABBOT” of Dynapot).
# [5] = tested on: bone marrow derived osteoclast precursor cells; assay: Differentiation of bone marrow derived osteoclast precursor cells into mature osteoclasts (TRAP staining); format: cell-based, ddY mice; settings: mean ± SD, n=3, 48-well plates
# Description: Bone marrow cells separated from the vertebrae of ddY mice (male, 7-9 week old) were cultivated on cell culture plates for 3 days in the presence of a macrophage colony-stimulating factor (M-CSF, 10 ng/ml). The suspended cells were washed with PBS and removed whereas the cells adhering to the plates were used as osteoclast precursor cells. Following the addition of more M-CSF (10 ng/ml) and a soluble RANK ligand (sRANKL, 40 ng/ml), the precursors were cultivated for 3-4 days in order to induce the maturation of osteoclasts. Before this cultivation, either compound 1 or a solvent (ethanol) alone was added in order to see what effects they would have. The maturation of osteoclasts was evaluated by staining the cultivated cells with a tartrate resistant acid phosphatase (TRAP) and counting the number of trinuclear and higher TRAP stained cells. Table 1 and FIG. 1 show the mean and SD values for the experiment in which the number of mature osteoclasts that were produced per well in 48-well plates was evaluated for n=3.
# breast cancer = settings: cited from earlier work
Structure (SMILES),AUC(0-inf) [3] [ng·h/mL],AUC∞ [2] [µg·h/mL],Intranuclear EgR content (in words) [4],DC50 [4] [nM],also measured
"C[C@]12C[C@H](CCCCCCCCC(CCCC(F)(F)C(F)(F)C(F)(F)C(F)(F)F)C(=O)O)[C@@H]3c4ccc(O)cc4CC[C@H]3[C@@H]1CCC2=O (stereo partly drawn) [Compound 3, 10-(3-hydroxy-17-oxo-estra-1,3,5(10)-trien-11β-yl)-2-(4,4,5,5,6,6,7,7,7-nonafluoroheptyl)decanoic acid]",–,–,–,–,Percent suppression (%) of the increase in the weight of the uterus [1]: 99%
"C[C@]12CC[C@@H]3c4ccc(O)cc4C[C@@H](CCCCCCCCC(CCCC(F)(F)C(F)(F)C(F)(F)C(F)(F)F)C(=O)O)[C@H]3[C@@H]1CC[C@@H]2O (single isomer, unassigned) [Control compound 1, 10-(3,17β-dihydroxyestra-1,3,5(10)-trien-7α-yl)-2-(4,4,5,5,6,6,7,7,7-nonafluoroheptyl)decanoic acid, reference compound]",420,–,–,–,AUC(0-inf) [2]: 274 µg·h/mL
"C[C@]12CC[C@@H]3c4ccc(O)cc4C[C@@H](CCCCCCCCC(CCCC(F)(F)C(F)(F)C(F)(F)C(F)(F)F)C(=O)O)[C@H]3[C@@H]1CC[C@@H]2O (single isomer, unassigned) [Control compound 2, 10-(3,17β-dihydroxyestra-1,3,5(10)-trien-7α-yl)-2-(4,4,5,5,6,6,7,7,7-nonafluoroheptyl)decanoic acid, reference compound]",–,469.73,–,–,–
"C#C[C@]1(O)CCC2C3C(CC[C@@]21C)c1ccc(O)cc1C[C@H]3CCCCCCCCC(CCCC(F)(F)C(F)(F)C(F)(F)C(F)(F)F)C(=O)O (single isomer, unassigned) [Compound 4, 10-(3,17β-dihydroxy-17α-ethynyl-estra-1,3,5(10)-trien-7α-yl)-2-(4,4,5,5,6,6,7,7,7-nonafluoroheptyl)decanoic acid]",3800,202.10,reduced the intranuclear EgR content in a dose-dependent manner,14,Percent suppression (%) of the increase in the weight of the uterus ([1]; 10 mg/kg): 94%
"C[C@]12CC[C@@H]3c4ccc(O)cc4C[C@@H](CCCCCCCCC(CCCC(F)(F)C(F)(F)C(F)(F)C(F)(F)F)C(=O)O)[C@H]3[C@@H]1CCC2=O (single isomer, unassigned) [Compound 1, 10-(3-hydroxy-17-oxo-estra-1,3,5(10)-trien-7α-yl)-2-(4,4,5,5,6,6,7,7,7-nonafluoroheptyl)decanoic acid]",2420,–,reduced the intranuclear EgR content in a dose-dependent manner,8.4,No. of mature osteoclasts per well ([5]; M-CSF + sRANKL + compound at 10^−4 mol/L): 0 ± 0; No. of mature osteoclasts per well ([5]; M-CSF + sRANKL + compound at 10^−5 mol/L): 34 ± 10; AUC(0-inf) [2]: 468 µg·h/mL; Percent suppression (%) of the increase in the weight of the uterus [1]: 96%
"C[C@]12CC[C@@H]3c4ccc(O)cc4C[C@@H](CCCCCCCCC(CCCC(F)(F)C(F)(F)C(F)(F)C(F)(F)F)C(=O)O)[C@H]3[C@@H]1CCC2=O (single isomer, unassigned) [Compound 2, 10-(3-hydroxy-17-oxo-estra-1,3,5(10)-trien-7α-yl)-2-(4,4,5,5,6,6,7,7,7-nonafluoroheptyl)decanoic acid]",–,722.55,reduced the intranuclear EgR content in a dose-dependent manner,8.7,–
C[C@]12CC[C@@H]3c4ccc(O)cc4C[C@@H](CCCCCCCCC[S+]([O-])CCCC(F)(F)C(F)(F)F)[C@H]3[C@@H]1CC[C@@H]2O (stereo partly shown) [Faslodex],–,–,–,–,"Objective response rate and duration of response to breast cancer (breast cancer; clinical tests, versus a SERM drug and an aromatase inhibitor): superior to a SERM drug and an aromatase inhibitor; Efficacy against tamoxifen-resistant breast cancer (breast cancer; tamoxifen-resistant breast cancer): effective against tamoxifen-resistant breast cancer"
"C#C[C@]1(O)CCC2C3C(CC[C@@]21C)c1ccc(O)cc1C[C@H]3CCCCCCCCC(CCCC(F)(F)C(F)(F)C(F)(F)C(F)(F)F)C(=O)O (single isomer, unassigned) [Compound 5, 10-(3,17β-dihydroxy-17α-ethynyl-estra-1,3,5(10)-trien-7α-yl)-2-(4,4,5,5,6,6,7,7,7-nonafluoroheptyl)decanoic acid]",–,661.00,reduced the intranuclear EgR content in a dose-dependent manner,100,Percent suppression (%) of the increase in the weight of the uterus ([1]; 10 mg/kg): 96%
